According to article PMC9629815, “MK256 is a novel CDK8 inhibitor with potent antitumor activity in AML through downregulation of the STAT pathway” (Oncotarget, 2022):
≈ marks a conversion by molar mass, not a printed value. Read-outs that look alike come from different tables or passages of the source.

Experiments:
[1] = Kinetic solubility assay; assay type: physicochemical
Method: MK256 was supplied as DMSO stock at 10 mM. 190 μL of buffer solution (PBS, pH 7.4) was added to all wells on a 96-well Millipore Solubility filter plate. 10 μL of MK256 or control compound testosterone was transferred in triplicate to the buffer wells to a final concentration of 500 μM. The filter plate was shaken for 1.5 hours at room temperature. Samples were filtered via a vacuum system into a fresh 96-well plate. Compounds were diluted to 500 μM (highest concentration) in DMSO and further diluted 1:10 for calibration curve (three-point). HPLC/UV analysis was performed on all samples (220 nm, 254 nm, and 280 nm).

[2] = target: CYR2C8 (Homo sapiens, UniProt P10632); assay: Cytochrome P450 inhibition assay; assay type: in vitro ADME; settings: 50 uM
[3] = system: CCL2 mRNA in KG-1 cells; assay: Real-time RT-PCR of CCL2 mRNA; assay type: cell-based
Method: (§1) Total RNA from the various cell lines was isolated using the RNeasy extraction method (Qiagen, Valencia, CA, USA). First-strand cDNA was synthesized from total RNA by iScript cDNA synthesis (Bio-Rad, Hercules, CA, USA) according to the manufacturer’s instructions. Taqman RT–PCR analysis was performed on cDNA in a 384-well plate, using a Prism 7900HT Real-Time PCR System (Applied Biosystems, Foster City, CA, USA). Primers and Taqman probes were purchased from Applied Biosystems. The expression of target genes MCL1 (Hs03043899_m1, Thermo fisher) and CCL2 (Hs00234140_m1, Thermo fisher) in each sample was assayed in triplicate and normalized to human GUSB for mRNA expression analysis. An unpaired t test was used to calculate statistical significance.

[4] = system: CCL2 mRNA in MOLM-14 cells; assay: Real-time RT-PCR of CCL2 mRNA; assay type: cell-based
Method: as §1

[5] = Hepatocyte stability assay; assay type: in vitro ADME, Dog
Method: (§2) Human LiverPoolTM 20-donor, dog and mouse cryopreserved hepatocytes were obtained from BioreclamationIVT. Cryopreserved hepatocytes were removed from the liquid nitrogen tank and thawed in a 37°C water bath. As soon as the cells pulled away from the vial wall, they were decanted into 48 ml of warm HT medium. Cells were centrifuged for four minutes at 420 rpm (50 g). After the supernatant was removed, the pellet was re-suspended in warm DMEM medium. Cell density was counted by a hemacytometer. The assay was carried out in 96-well microtiter plates. MK256 was incubated for 0, 60, 120, and 180 minutes at 37°C with hepatocytes. Reaction mixtures (50 μL) contained a final concentration of 1 μM MK256, 0.5 million cells/mL hepatocytes in the DMEM medium. At each time point (for example, 0, 1, 2, and 3 hrs), 200 μL of quench solution (100% acetonitrile with 0.1% formic acid) with internal standard were transferred to each well. […] All samples were analyzed on LC/MS/MS using an AB Sciex API 4000 instrument, coupled to a Shimadzu LC-20AD LC Pump system. […] The extent of metabolism was calculated as the disappearance of the test compound, compared to the 0-min control reaction incubations. Initial rates were calculated for the compound concentration and used to determine t1/2 values and subsequently, the intrinsic clearance, CLint = (0.693)(1/t1/2 (min))(mL incubation/million cells).

[6] = target: hERG (Homo sapiens, UniProt Q12809); assay: hERG safety assay; settings: 30 uM
[7] = Hepatocyte stability assay; assay type: in vitro ADME, Mouse
Method: as §2

[8] = Histological analysis (H&E) of major organs after 21 days treatment; assay type: in vivo, mice; settings: 100 mg/kg, q.d., oral
Method: To evaluate the behavior of MK256 in vivo we did a full pharmacokinetics (PK) analysis of MK256 in mice. […] In the MOLM-14 xenograft model, we treated mice with 10 mg/kg, 50 mg/kg and 100 mg/kg of MK256 for 6 hrs, after which tumors from each treatment group were harvested and processed for western blotting analysis. […] We also performed a histological analysis of the major organs (bone, brain, heart, intestine, kidney, liver and lung) of mice after they were treated with 100 mg/kg of MK256 for 21 days (q.d, oral) (Figure 8). […] In summary, MK256 offered a desirable solubility, permeability, hepatocyte stability, toxicology, and pharmacokinetics/pharmacodynamics (PK/PD) profile.
Figure 8 Evaluation of the toxicity of MK256 in vivo. Histological data (H&E staining) obtained in the major organs (bone, brain, heart, intestine, kidney, liver, and lung) of the mice treated with MK256 (100 mg/kg, q.d., oral) for 21 days.

[9] = target: CYP2D6 (Homo sapiens, UniProt P10635); assay: Cytochrome P450 inhibition assay; assay type: in vitro ADME; settings: 50 uM
[10] = target: CDK8/cyclin C (Homo sapiens, UniProt P49336); assay: SelectScreen kinase profiling, IC50; assay type: biochemical; settings: read-out: IC50 against CDK8/cyclin C
Source text: (§3) MK256 was synthesized in house. The kinase profiling of MK256 against various targets was done using the SelectScreen Kinase Profiling Services provided by ThermoFisher Scientific (Walham WA, USA). https://www.thermofisher.com/us/en/home/products-and-services/services/custom-services/screening-and-profiling-services/selectscreen-profiling-service/selectscreen-kinase-profiling-service.html.

[11] = target: CDK9 (Homo sapiens, UniProt P50750); assay: SelectScreen kinase profiling, IC50; assay type: biochemical
Source text: as §3

[12] = target: CDK19/cyclin C (Homo sapiens, UniProt Q9BWU1); assay: SelectScreen kinase profiling, IC50; assay type: biochemical; settings: read-out: IC50 against CDK19/cyclin C
Source text: as §3

[13] = target: CYP2C9 (Homo sapiens, UniProt P11712); assay: Cytochrome P450 inhibition assay; assay type: in vitro ADME; settings: 50 uM
Sequence of CYP2C9 (P11712 whole entry): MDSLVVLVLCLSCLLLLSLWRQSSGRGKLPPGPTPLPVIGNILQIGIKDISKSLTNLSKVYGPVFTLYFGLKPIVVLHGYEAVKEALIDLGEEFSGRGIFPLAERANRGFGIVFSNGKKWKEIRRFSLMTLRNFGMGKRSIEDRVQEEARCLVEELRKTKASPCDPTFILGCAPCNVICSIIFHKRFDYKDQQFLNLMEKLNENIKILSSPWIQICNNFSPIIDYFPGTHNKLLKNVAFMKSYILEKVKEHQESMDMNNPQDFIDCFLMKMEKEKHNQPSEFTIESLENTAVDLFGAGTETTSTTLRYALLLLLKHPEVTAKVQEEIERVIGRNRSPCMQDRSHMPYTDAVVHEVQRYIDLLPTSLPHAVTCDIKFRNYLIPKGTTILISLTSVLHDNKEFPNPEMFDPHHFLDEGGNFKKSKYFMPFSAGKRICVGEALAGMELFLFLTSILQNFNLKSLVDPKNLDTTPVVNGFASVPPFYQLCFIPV

Sequence of CDK9 (P50750 whole entry): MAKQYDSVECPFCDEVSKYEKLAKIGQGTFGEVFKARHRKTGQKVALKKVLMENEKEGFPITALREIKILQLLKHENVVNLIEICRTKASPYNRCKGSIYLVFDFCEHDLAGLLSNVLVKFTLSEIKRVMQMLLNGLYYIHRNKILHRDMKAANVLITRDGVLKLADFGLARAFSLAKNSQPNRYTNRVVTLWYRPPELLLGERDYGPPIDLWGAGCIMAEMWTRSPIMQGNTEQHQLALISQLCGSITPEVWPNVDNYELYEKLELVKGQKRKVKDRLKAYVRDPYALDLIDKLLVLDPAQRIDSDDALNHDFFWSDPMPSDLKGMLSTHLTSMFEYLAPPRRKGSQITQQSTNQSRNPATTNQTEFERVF
Sequence of CDK9 (O60563 whole entry partner): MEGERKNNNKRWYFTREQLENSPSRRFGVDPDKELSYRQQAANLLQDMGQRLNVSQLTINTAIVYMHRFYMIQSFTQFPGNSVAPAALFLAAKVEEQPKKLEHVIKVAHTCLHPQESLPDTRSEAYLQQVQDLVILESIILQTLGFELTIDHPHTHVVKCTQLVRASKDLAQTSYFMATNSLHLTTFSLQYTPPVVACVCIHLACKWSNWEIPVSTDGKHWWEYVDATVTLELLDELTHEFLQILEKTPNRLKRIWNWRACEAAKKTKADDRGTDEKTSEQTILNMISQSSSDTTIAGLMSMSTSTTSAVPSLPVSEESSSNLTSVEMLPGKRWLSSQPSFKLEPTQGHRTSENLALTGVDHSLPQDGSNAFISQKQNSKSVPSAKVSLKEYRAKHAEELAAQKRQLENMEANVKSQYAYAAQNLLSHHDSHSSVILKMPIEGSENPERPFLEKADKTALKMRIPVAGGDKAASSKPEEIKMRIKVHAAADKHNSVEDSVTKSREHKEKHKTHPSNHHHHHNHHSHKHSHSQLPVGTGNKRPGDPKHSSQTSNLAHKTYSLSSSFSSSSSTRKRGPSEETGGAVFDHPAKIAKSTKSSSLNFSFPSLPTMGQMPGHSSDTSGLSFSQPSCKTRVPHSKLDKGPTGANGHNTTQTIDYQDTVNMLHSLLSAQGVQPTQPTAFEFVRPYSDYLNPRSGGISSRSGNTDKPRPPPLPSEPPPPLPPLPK
Sequence of CYR2C8 (P10632 whole entry): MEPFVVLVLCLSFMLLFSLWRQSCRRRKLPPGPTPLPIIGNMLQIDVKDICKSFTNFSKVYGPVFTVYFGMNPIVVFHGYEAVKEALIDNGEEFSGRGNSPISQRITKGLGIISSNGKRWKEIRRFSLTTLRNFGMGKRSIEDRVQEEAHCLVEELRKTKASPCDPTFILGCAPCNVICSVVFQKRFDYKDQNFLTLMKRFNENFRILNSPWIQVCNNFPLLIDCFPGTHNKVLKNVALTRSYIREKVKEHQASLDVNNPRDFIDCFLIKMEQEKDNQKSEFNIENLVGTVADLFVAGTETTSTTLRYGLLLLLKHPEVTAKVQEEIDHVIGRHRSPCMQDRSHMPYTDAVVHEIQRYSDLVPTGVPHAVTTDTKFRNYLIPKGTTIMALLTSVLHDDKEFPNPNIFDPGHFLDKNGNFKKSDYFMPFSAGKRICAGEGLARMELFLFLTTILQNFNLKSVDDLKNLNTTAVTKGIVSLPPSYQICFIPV
Sequence of CYP2D6 (P10635 whole entry): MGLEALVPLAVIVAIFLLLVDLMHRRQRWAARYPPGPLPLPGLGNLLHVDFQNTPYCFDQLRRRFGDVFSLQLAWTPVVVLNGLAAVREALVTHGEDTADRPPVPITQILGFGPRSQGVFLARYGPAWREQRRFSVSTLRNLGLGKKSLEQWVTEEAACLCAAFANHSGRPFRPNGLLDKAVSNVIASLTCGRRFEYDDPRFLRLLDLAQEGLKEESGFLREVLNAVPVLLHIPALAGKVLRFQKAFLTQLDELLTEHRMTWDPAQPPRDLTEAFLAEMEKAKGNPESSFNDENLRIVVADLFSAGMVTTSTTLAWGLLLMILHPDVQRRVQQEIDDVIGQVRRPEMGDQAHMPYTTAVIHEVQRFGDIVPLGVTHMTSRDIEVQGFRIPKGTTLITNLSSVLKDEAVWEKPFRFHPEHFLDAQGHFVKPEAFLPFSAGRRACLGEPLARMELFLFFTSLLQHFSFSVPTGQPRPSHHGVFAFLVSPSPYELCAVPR
Sequence of hERG (Q12809 whole entry): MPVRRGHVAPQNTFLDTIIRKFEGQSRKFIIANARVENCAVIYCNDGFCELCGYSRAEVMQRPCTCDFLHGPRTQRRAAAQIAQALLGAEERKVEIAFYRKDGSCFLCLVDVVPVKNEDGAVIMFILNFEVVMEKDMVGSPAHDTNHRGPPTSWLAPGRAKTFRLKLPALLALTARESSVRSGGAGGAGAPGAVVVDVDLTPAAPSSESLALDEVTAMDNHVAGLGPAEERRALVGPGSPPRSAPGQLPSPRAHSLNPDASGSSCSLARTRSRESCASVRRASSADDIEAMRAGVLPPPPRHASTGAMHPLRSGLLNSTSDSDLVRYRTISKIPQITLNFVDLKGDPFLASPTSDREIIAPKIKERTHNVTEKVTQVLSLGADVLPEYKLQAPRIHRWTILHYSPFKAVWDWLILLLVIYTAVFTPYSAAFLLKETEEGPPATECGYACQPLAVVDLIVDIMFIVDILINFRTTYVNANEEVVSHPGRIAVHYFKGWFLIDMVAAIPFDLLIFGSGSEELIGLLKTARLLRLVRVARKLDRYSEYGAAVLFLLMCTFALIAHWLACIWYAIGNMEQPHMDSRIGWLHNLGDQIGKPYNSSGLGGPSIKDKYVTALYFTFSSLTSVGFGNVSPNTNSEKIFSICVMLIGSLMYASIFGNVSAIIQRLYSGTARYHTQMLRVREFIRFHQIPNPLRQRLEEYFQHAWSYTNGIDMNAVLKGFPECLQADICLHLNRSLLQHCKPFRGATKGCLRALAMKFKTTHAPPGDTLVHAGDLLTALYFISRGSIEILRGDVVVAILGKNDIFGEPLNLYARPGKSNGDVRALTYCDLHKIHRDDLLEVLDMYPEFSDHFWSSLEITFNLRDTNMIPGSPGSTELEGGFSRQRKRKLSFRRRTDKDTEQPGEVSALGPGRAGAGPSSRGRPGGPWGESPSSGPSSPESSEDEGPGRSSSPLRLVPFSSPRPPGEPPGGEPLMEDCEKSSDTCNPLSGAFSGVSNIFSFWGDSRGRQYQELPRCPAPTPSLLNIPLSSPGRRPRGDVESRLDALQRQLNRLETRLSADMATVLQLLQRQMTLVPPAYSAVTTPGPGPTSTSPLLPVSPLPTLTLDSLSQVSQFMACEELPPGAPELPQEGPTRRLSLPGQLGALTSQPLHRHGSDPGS
Sequence of CDK19/cyclin C (Q9BWU1 whole entry): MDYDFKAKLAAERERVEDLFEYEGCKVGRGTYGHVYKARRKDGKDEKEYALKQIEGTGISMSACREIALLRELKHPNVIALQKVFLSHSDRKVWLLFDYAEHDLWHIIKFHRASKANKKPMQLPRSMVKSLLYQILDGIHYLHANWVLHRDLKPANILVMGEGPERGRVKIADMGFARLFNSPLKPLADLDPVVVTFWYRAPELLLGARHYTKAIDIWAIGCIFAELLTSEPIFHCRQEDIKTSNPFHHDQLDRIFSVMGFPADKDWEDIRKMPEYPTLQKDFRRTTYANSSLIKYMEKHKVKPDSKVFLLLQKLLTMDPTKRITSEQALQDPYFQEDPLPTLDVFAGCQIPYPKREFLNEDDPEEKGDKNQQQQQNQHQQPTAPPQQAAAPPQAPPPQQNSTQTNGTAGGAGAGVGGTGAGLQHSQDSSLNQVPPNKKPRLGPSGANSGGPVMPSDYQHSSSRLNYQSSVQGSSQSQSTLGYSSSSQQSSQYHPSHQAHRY
Sequence of CDK19/cyclin C (P24863 whole entry partner): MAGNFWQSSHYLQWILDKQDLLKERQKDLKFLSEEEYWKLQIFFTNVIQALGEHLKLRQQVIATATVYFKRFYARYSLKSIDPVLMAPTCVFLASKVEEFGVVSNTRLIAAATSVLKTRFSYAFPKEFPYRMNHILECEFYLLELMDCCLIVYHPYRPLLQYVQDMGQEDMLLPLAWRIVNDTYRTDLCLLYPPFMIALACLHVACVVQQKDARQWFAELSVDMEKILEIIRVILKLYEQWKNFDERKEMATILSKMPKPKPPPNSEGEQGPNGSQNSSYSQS

Nc1nccc2c(Br)cc3cc(C(=O)O)ccc3c12 [MK256]
solubility kinetic at 1.5 h ([1]; PBS buffer, aqueous buffer, kinetic from dmso stock, pH 7.4, read-out: KSOL (μM) PBS (PH 7.4)): 566 µM (≈ 180 µg/mL)
solubility kinetic at 1.5 h ([1]; PBS, pH 7.4, read-out: KSOL (μM) PBS (PH 7.4)): 566 µM (≈ 180 µg/mL)
cytochrome P450 inhibition [2]: no inhibition
expression of CCL2 downregulated to ([3]; 300 nM): approximately 50%
expression of CCL2 downregulated to ([3]; 1 uM): ~40%
mRNA level of CCL2 ([4]; 1 uM): abolished
mrna remaining at 0.3 µM ([4]; Homo sapiens, MOLM-14, 300 nM, read-out: mRNA level of CCL2 (remaining)): ~5%
Clint (μL·min^−1·mg protein^−1) ([5]; Dog hepatocytes): 7 μL·min^−1·mg protein^−1
half-life at 1 µM ([5]; dog, cryopreserved dog hepatocytes, read-out: T½): 3.57 h
inhibition of hERG [6]: no inhibition
Clint (μL·min^−1·mg protein^−1) ([7]; Mouse hepatocytes): 5 μL·min^−1·mg protein^−1
half-life at 1 µM ([7]; mouse, cryopreserved mouse hepatocytes, read-out: T½): 5.18 h
histology of major organs (bone, brain, heart, intestine, kidney, liver and lung) [8]: did not cause visible pathological changes
cytochrome P450 inhibition [9]: no inhibition
IC50 [10]: 2.5 nM
fold reduction of activity against CDK9 in comparison to CDK8 ([11]; CDK9 IC50 vs CDK8 IC50): approximately 40 fold
IC50 ([11]; read-out: IC50 against CDK9): 105 nM
IC50 [12]: 3.3 nM
cytochrome P450 inhibition [13]: no inhibition
